Experimental data published in ChEMBL document CHEMBL4421722, “Inhibitors of protein prenyltransferases” (2013).

What was measured:
[1] = Inhibition of rat recombinant geranylgeranyltransferase type I expressed in Escherichia coli assessed as reduction in geranylgeranylation of RhoA incubated for 30 mins in presence of [3H]GGPP by scintillation counting assay relative to control
[2] = organism: Rattus norvegicus; experiment: Inhibition of rat recombinant geranylgeranyltransferase type I expressed in Escherichia coli assessed as residual enzyme activity for geranylgeranylation of RhoA at 50 uM incubated for 30 mins in presence of [3H]GGPP by scintillation counting assay relative to control
[3] = organism: Rattus norvegicus; experiment: Inhibition of rat recombinant geranylgeranyltransferase type I expressed in Escherichia coli assessed as residual enzyme activity for geranylgeranylation of K-Ras4B at 50 uM incubated for 30 mins in presence of [3H]GGPP by scintillation counting assay relative to control

Row | SMILES | IC50 [1] | Activity [2] | Activity [3]
1 | CC(C)(C)[C@@H]1C=C(C(=O)N[C@@H](Cc2ccccc2)C(N)=O)[C@H](c2ccc(Cl)c(Cl)c2)N1S(=O)(=O)c1ccccc1Br | > 20000 nM | – | –
2 | CC(C)(C)[C@@H]1C=C(C(=O)O)[C@H](c2ccc(Cl)c(Cl)c2)N1S(=O)(=O)C(C)(C)C | 4400 nM | – | –
3 | O=C(O)C1=CC[C@@H](c2cccc(Br)c2)N(S(=O)(=O)c2ccc(F)cc2)[C@H]1c1cccc(Cl)c1 | 212 nM | – | –
4 | O=C(O)C1=CC[C@@H](c2cccc(Cl)c2)N(S(=O)(=O)c2ccc(Cl)cc2)[C@H]1c1cccc(Cl)c1 | 241 nM | – | –
5 | O=C(O)C1=CC[C@@H](c2ccc(Br)cc2)N(S(=O)(=O)c2ccc(Br)cc2)[C@H]1c1cccc(Cl)c1 | 398 nM | – | –
6 | NC(=O)[C@H](Cc1ccccc1)NC(=O)C1=CC[C@@H](c2cccc(Cl)c2)N(S(=O)(=O)c2ccc(Br)cc2)[C@H]1c1cccc(Br)c1 | > 20000 nM | – | –
7 | O=C(O)C1=CC[C@@H](c2cccc(Cl)c2)N(S(=O)(=O)c2ccc(Br)cc2)[C@H]1c1cccc(Br)c1 | 155 to 169 nM | – | –
8 | O=C(N[C@@H](Cc1ccccc1)C(=O)O)C1=CC[C@@H](c2cccc(Cl)c2)N(S(=O)(=O)c2ccc(Br)cc2)[C@H]1c1cccc(Br)c1 | 32 nM | – | –
9 | CC(C)(C)[C@@H]1C=C(C(=O)O)[C@H](c2ccc(Cl)c(Cl)c2)N1S(=O)(=O)c1c(Cl)cccc1Cl | 4400 nM | – | –
10 | O=C(O)C1=CC[C@@H](c2cccc(Br)c2)N(S(=O)(=O)c2ccc(Cl)cc2)[C@H]1c1cccc(F)c1 | 841 nM | – | –
11 | O=C(O)C1=CC[C@@H](c2cccc(Br)c2)N(S(=O)(=O)c2ccc(Br)cc2)[C@H]1c1cccc(Cl)c1 | 529 nM | – | –
12 | O=C(O)C1=CC[C@@H](c2cccc(Br)c2)N(S(=O)(=O)c2ccc(Br)cc2)[C@H]1c1cccc(Br)c1 | 525 nM | – | –
13 | CCC[C@@H]1[C@@H](Sc2ccc(C)cc2)[C@@H](C(=O)O)[C@H](c2cccc(F)c2)N1S(=O)(=O)c1ccc(C)cc1 | – | 4.1% | 14.7%
14 | CC[C@@H]1[C@@H](Sc2ccc(OC)cc2)[C@@H](C(=O)O)[C@H](c2cccc(Cl)c2)N1S(=O)(=O)c1ccc(C)cc1 | – | 6.5% | 25.5%
15 | O=C(O)C1=CC[C@@H](c2ccc(Cl)cc2)N(S(=O)(=O)c2ccc(Cl)cc2)[C@H]1c1cccc(Cl)c1 | – | 26.7% | 33.1%
16 | Cc1ccccc1S(=O)(=O)N1C[C@@H](C(=O)O)[C@H](Sc2ccc(Cl)cc2)C[C@H]1c1ccc(Cl)cc1 | – | 13% | 83.5%
17 | Cc1ccccc1S(=O)(=O)N1[C@@H](c2ccccc2)C(C(=O)O)=CC[C@H]1c1ccc(Cl)cc1 | – | 5.8% | 13.4%
18 | O=C(O)C1=CC[C@@H](c2cccc(Br)c2)N(S(=O)(=O)c2ccc(Cl)cc2)[C@H]1c1cccc(Cl)c1 | 125 to 154 nM | – | –
19 | CCCC[C@@H]1[C@@H](Sc2ccc(OC)cc2)[C@@H](C(=O)O)[C@H](c2cccc(F)c2)N1S(=O)(=O)c1ccc(C)cc1 | – | 3.5% | 27.4%
20 | CC[C@@H]1[C@@H](SCCC(=O)OC(C)(C)C)[C@@H](C(=O)O)[C@H](c2ccc(Cl)c(Cl)c2)N1S(=O)(=O)c1ccc(C)cc1 | – | 7.6% | 27.2%
21 | CCC[C@@H]1[C@@H](Sc2ccc(OC)cc2)[C@@H](C(=O)O)[C@H](c2cccc(F)c2)N1S(=O)(=O)c1ccc(C)cc1 | – | 3.5% | 27.4%

Row | SMILES | IC50 [1] | Activity [2] | Activity [3]
22 | COc1ccc([C@@H]2C[C@@H](Sc3ccc(Cl)cc3)[C@H](C(=O)O)CN2S(=O)(=O)c2ccc(Cl)cc2)cc1 | – | 8.6% | 73.2%
23 | C=CCS[C@H]1[C@@H](C(=O)O)[C@H](c2ccc(C#N)cc2)N(S(=O)(=O)c2ccc(C)cc2)[C@@H]1CCCCCC | – | 6% | 21.5%
24 | C=CCS[C@H]1[C@@H](C(=O)O)[C@H](c2cccc(F)c2)N(S(=O)(=O)c2ccc(C)cc2)[C@@H]1CC1CCCC1 | – | 9.7% | 30.4%
25 | Cc1ccccc1S(=O)(=O)N1[C@@H](c2ccccc2F)C(C(=O)O)=CC[C@H]1c1ccc(Cl)cc1 | – | 4.1% | 8.4%
26 | C=CCS[C@H]1[C@@H](C(=O)O)[C@H](c2ccc(Cl)cc2)N(S(=O)(=O)c2ccccc2C)[C@@H]1CC1CCCC1 | – | 4.9% | 22.4%
27 | C=CCS[C@H]1[C@@H](C(=O)O)[C@H](c2ccc(Br)cc2)N(S(=O)(=O)c2ccc(C)cc2)[C@@H]1CCCCCC | – | 5.5% | 15.5%
28 | Cc1ccc([C@H]2C(C(=O)O)=CC[C@@H](c3ccc(Cl)c(Cl)c3)N2S(=O)(=O)c2ccc(C)cc2)cc1 | – | 15.6% | 12.4 to 17.4%
29 | O=C(O)C1=CC[C@@H](c2ccc(Cl)c(Cl)c2)N(S(=O)(=O)c2ccc(Cl)cc2)[C@H]1c1cccc(Cl)c1 | 310 nM | – | –
30 | Cc1ccc(S(=O)(=O)N2C(c3ccc(Cl)c(Cl)c3)CC=C(C(=O)O)C2c2cccc(Cl)c2)cc1 (stereo not drawn) | – | 4.5% | 10.7 to 26%
31 | C=CCS[C@H]1[C@@H](C(=O)O)[C@H](c2ccc(Cl)c(Cl)c2)N(S(=O)(=O)c2ccc(C)cc2)[C@@H]1CC1CCCC1 | – | 8.6% | 12.1%
32 | Cc1ccc(S(=O)(=O)N2[C@H](CC3CCCC3)[C@@H](SCCC(=O)OC(C)(C)C)[C@@H](C(=O)O)[C@@H]2c2ccc(Cl)c(Cl)c2)cc1 | – | 7.3% | 16.1%
33 | Cc1ccccc1S(=O)(=O)N1[C@H](CC2CCCC2)[C@@H](SCCC(=O)OC(C)(C)C)[C@@H](C(=O)O)[C@@H]1c1ccc(Cl)cc1 | – | 7.8% | 10%
34 | Cc1ccccc1S(=O)(=O)N1[C@@H](c2cccc(F)c2)C(C(=O)O)=CC[C@H]1c1ccc(Cl)cc1 | – | 3% | 5.4 to 13.4%
35 | O=C(O)C1=CC[C@@H](c2cccc(Cl)c2)N(S(=O)(=O)c2ccc(Br)cc2)[C@H]1c1cccc(Cl)c1 | 86 to 87.1 nM | – | –
36 | NC(=O)[C@H](Cc1ccccc1)NC(=O)C1=CC[C@@H](c2cccc(Br)c2)N(S(=O)(=O)c2ccc(Cl)cc2)[C@H]1c1cccc(Cl)c1 | 300 to 450 nM | – | –
37 | CC(C)C[C@H](NC(=O)C1=CC[C@@H](c2cccc(Cl)c2)N(S(=O)(=O)c2ccc(Br)cc2)[C@H]1c1cccc(Br)c1)C(=O)O | 40 nM | – | –
38 | Cc1ccc(S(=O)(=O)N2[C@@H](c3ccc(Cl)cc3)C(C(=O)O)=CC[C@H]2c2ccc(Cl)c(Cl)c2)cc1 | – | 12.1% | 17.7 to 21.3%
39 | Cc1ccc(S(=O)(=O)N2[C@H](CC3CCCC3)[C@@H](SCCC(=O)OC(C)(C)C)[C@@H](C(=O)O)[C@@H]2c2cccc(F)c2)cc1 | – | 8.2% | 31.9%
40 | C=CCS[C@H]1[C@@H](C(=O)O)[C@H](c2ccc(Cl)c(Cl)c2)N(S(=O)(=O)c2ccc(C)cc2)[C@@H]1CCCC | – | 9.6% | 21.4%
41 | Cc1ccc(S(=O)(=O)N2[C@@H](c3cccc(Cl)c3)C(C(=O)O)=CC[C@H]2c2cccc(Cl)c2)cc1 | – | 6% | 43.7 to 43.8%

The remaining lines, values ahead:

Row | IC50 [1] | Activity [2] | Activity [3] | SMILES
42 | 330 nM | – | – | Cc1cccc([C@@H]2CC=C(C(=O)O)[C@H](c3cccc(Br)c3)N2S(=O)(=O)c2ccc(Br)cc2)c1
43 | 256 nM | – | – | Cc1cccc([C@H]2C(C(=O)O)=CC[C@@H](c3cccc(Br)c3)N2S(=O)(=O)c2ccc(Cl)cc2)c1
44 | – | 2.3% | 13.7 to 19.2% | Cc1ccc(S(=O)(=O)N2C[C@@H](C(=O)O)[C@H](SCCC(C)C)C[C@H]2c2cccc(Br)c2)cc1
45 | – | 4.6% | 11.5 to 15.8% | Cc1ccc(S(=O)(=O)N2C[C@@H](C(=O)O)[C@H](SCc3ccccc3)C[C@H]2c2ccc(Cl)cc2)cc1
46 | – | 6% | 11.9 to 13.5% | Cc1ccc(S(=O)(=O)N2C[C@@H](C(=O)O)[C@H](SCc3ccc(Cl)cc3)C[C@H]2c2cccc(Cl)c2)cc1
47 | – | 3.3% | 30.8 to 31.6% | Cc1ccc([C@@H]2C[C@@H](SCc3ccc(Cl)cc3)[C@H](C(=O)O)CN2S(=O)(=O)c2ccc(Cl)cc2)cc1
48 | – | 13.4% | 29.2 to 31.9% | COc1ccc([C@@H]2C[C@@H](SCc3ccc(Cl)cc3)[C@H](C(=O)O)CN2S(=O)(=O)c2ccccc2)cc1
49 | – | -1.5% | 5.9 to 9% | CCCCS[C@@H]1C[C@@H](c2cccc(Br)c2)N(S(=O)(=O)c2ccc(C)cc2)C[C@H]1C(=O)O
50 | – | 8.1% | 12.8 to 15.7% | Cc1ccc(S(=O)(=O)N2C[C@@H](C(=O)O)[C@H](SCc3ccccc3)C[C@H]2c2ccccc2F)cc1
51 | – | 2.9% | 5.5 to 7.6% | Cc1ccc(S(=O)(=O)N2C[C@@H](C(=O)O)[C@H](SCc3ccccc3)C[C@H]2c2cccc(Br)c2)cc1
52 | – | 7.4% | 8.4 to 19.9% | Cc1ccc([C@@H]2CC=C(C(=O)O)[C@H](c3cccc(Br)c3)N2S(=O)(=O)c2ccc(Cl)cc2)cc1
53 | – | 2.9% | 2.3 to 3% | CCc1ccc([C@@H]2C[C@@H](SCCc3ccccc3)[C@H](C(=O)O)CN2S(=O)(=O)c2ccc(C)cc2)cc1
54 | – | 12% | 25.1 to 26% | Cc1ccc(S(=O)(=O)N2C[C@@H](C(=O)O)[C@H](SCCC(C)C)C[C@H]2c2cccc(Cl)c2)cc1
55 | – | 7.8% | 8.7 to 12% | Cc1ccccc1S(=O)(=O)N1C[C@@H](C(=O)O)[C@H](SCc2ccccc2)C[C@H]1c1ccc(Cl)cc1
56 | – | 3.1% | 4.7 to 7.3% | Cc1ccc(S(=O)(=O)N2C[C@@H](C(=O)O)[C@H](SCCc3ccccc3)C[C@H]2c2cccc(Br)c2)cc1
57 | – | 17.2% | 78.3% | Cc1ccc([C@@H]2C[C@@H](Sc3ccc(Cl)cc3)[C@H](C(=O)O)CN2S(=O)(=O)c2ccccc2)cc1
58 | – | 7.9% | 9.8 to 24.4% | Cc1ccc(S(=O)(=O)N2[C@@H](c3cccc(Cl)c3)C(C(=O)O)=CC[C@H]2c2cccc(Br)c2)cc1
59 | – | 19.4% | 35.2% | Cc1ccc(S(=O)(=O)N2[C@@H](c3ccccc3)C(C(=O)O)=CC[C@H]2c2cccc(Br)c2)cc1
60 | – | 14.2% | 64.1% | Cc1ccc(S(=O)(=O)N2C[C@@H](C(=O)O)[C@H](Sc3ccc(Cl)cc3)C[C@H]2c2ccccc2)cc1
61 | – | 17.2% | 22 to 29.6% | Cc1ccc([C@@H]2C[C@@H](SCc3ccc(Cl)cc3)[C@H](C(=O)O)CN2S(=O)(=O)c2ccccc2)cc1
